# Measurements as given in patent US8785452B2, “Anti-infective compounds” (priority 2008, dated 2014).
# Like-named read-outs stand apart in the source and are kept apart here.
# Test system: M. tuberculosis H37Rv-GFP
# Experiment: microbe, parasite or virus in culture
# Format: cell-based, Mycobacterium tuberculosis
# Conditions: Mycobacterium tuberculosis, H37RV, Macrophage
# [1] = read-out: Primary QIM % Inhibition
# [2] = read-out: QIM Confirm % Inhibition 20 uM
# [3] = confirmation, 20 uM, intracellular, read-out: QIM Confirm % Inhibition 20 uM
# [4] = primary screen, 20 μM, intracellular, read-out: Primary QIM % Inhibition
Compound,inhibition at 20 µM [1] [%],inhibition at 20 µM [2] [%],inhibition at 20 µM [3] [%],inhibition at 20 µM [4] [%]
CCCCOC(=O)c1cc([N+](=O)[O-])c(Sc2nc3ccccc3[nH]2)c([N+](=O)[O-])c1 [IPK 000 141 58],58.2,59.2,,
c1cc2c3c(cccc3c1)NC1(CCCCCC1)N2 [IPK 000 141 61],,,50.8,4.2
O=C(COc1ccc(-c2ccccc2)cc1)Nc1nc2ccccc2s1 [IPK 000 142 17],84.3,82.3,,
CC(C)(C)c1ccc(-c2nc(Oc3ccc(O)cc3)c3ccccc3n2)cc1 [IPK 000 142 18],,,79.4,73.2
CC(C)(C)c1ccc(O)c(C(=O)Oc2ccccc2)c1 [IPK 000 143 45],,,83.5,81.2
COc1ccc(-c2csc(-c3cccnc3)n2)cc1 [IPK 000 144 22],,,30,-9.8
O=C(Nc1ccc(C(F)(F)F)cc1)Nc1cccc(F)c1 [IPK 000 146 91],,,70,57
O=C(Nc1ccc(Cl)cc1)Nc1ccc(C(F)(F)F)cc1 [IPK 000 146 98],,,26.5,55.8
O=C(Nc1ccc(F)cc1)Nc1ccc(C(F)(F)F)cc1 [IPK 000 147 17],,,40.8,11.9
O=C(Nc1ccc(C(F)(F)F)cc1)Nc1cccc(Cl)c1 [IPK 000 147 54],,,10.1,-10.9
O=C(COc1cccc(Cl)c1)N/N=C/c1ccc([N+](=O)[O-])o1 [IPK 000 147 98],,,72.3,6.3
O=C(COc1ccc(F)cc1)N/N=C/c1ccc([N+](=O)[O-])o1 [IPK 000 148 04],,,59.3,21.8
CCCC(C)c1ccc(OCC(=O)N/N=C/c2ccsc2)cc1 (stereo not shown) [IPK 000 148 11],,,86.6,65.4
C=CCc1ccc(OCC(=O)N/N=C/c2ccc([N+](=O)[O-])o2)c(OC)c1 [IPK 000 148 44],,,8.2,-15.1
O=C(CCCCC1=CCCS1)Nc1ccc(C(F)(F)F)cc1 [IPK 000 148 64],,,71.4,72.5
CCOc1ncccc1C(=O)N/N=C/c1ccc([N+](=O)[O-])o1 [IPK 000 148 65],,,29.1,41.2
O=c1[nH]cc(Sc2cccc3cccnc23)c(=O)[nH]1 [IPK 000 149 02],,,19.1,23.5
O=C(NNC(=O)c1cc([N+](=O)[O-])cc([N+](=O)[O-])c1)c1ccc(COc2ccc3c(c2)CCC3)cc1 [IPK 000 149 44],57.6,47.1,,
O=C(COc1ccccc1)N/N=C/c1ccc([N+](=O)[O-])o1 [IPK 000 149 78],,,3.6,15.2
O=C(CSC1=NCCS1)Nc1ccc(Br)cc1F [IPK 000 150 41],,,83.3,78.3
C/C(Cn1nnc([N+](=O)[O-])n1)=N\Nc1c(Cl)cc(Cl)cc1Cl [IPK 000 150 48],,,16.1,-96.3
O=[N+]([O-])c1cc(-c2nnc(-c3ccccc3)o2)cc([N+](=O)[O-])c1 [IPK 000 150 85],72.3,72.2,,
CC(=O)OC(OC(C)=O)c1ccc([N+](=O)[O-])s1 [IPK 000 155 36],,,74,67.8

Compound,inhibition at 20 µM [1] [%],inhibition at 20 µM [2] [%],inhibition at 20 µM [3] [%],inhibition at 20 µM [4] [%]
COc1cc(/C=N/NC(=O)c2ccncc2)cc(Br)c1OCc1ccccc1Cl [IPK 000 157 51],,,46.2,96
C/C(=N\NC(=O)COc1cccc(Br)c1)c1ccccn1 [IPK 000 157 55],,,19.9,22
NNC(=O)CSc1nc2ccccc2s1 [IPK 000 160 45],,,70.7,66
O=C(c1ccc([N+](=O)[O-])o1)N1CCCc2ccccc21 [IPK 000 161 32],,,17.8,-37.9
CCC(=O)Nc1ccc(-c2csc(N/N=C/c3ccc(SC)cc3)n2)cc1 [IPK 000 163 27],,,17.9,69.5
CCCC(=O)Nc1ccc(-c2csc(N/N=C/c3ccc(SC)cc3)n2)cc1 [IPK 000 163 51],,,50,89.4
COc1ccc(/C=N/Nc2nc(-c3ccc(NC(C)=O)cc3)cs2)cc1 [IPK 000 163 52],,,70.7,86.2
COc1ccc(/C=N/Nc2nc(-c3ccccc3)cs2)cc1 [IPK 000 163 62],,,107,81.3
CC/C(=N/Nc1nc(-c2ccc(NC(C)=O)cc2)cs1)c1ccccc1 [IPK 000 163 64],,,74.2,74.9
CSc1ccc(/C=N/Nc2nc(-c3ccc(NC(C)=O)cc3)cs2)cc1 [IPK 000 163 67],,,99.5,68.1
Cc1cc(C)nc(NC(=N)Nc2ccc(OCc3ccc(Cl)cc3)cc2)n1 [IPK 000 163 93],,,89.9,66.7
O=[N+]([O-])c1ccc(O)c(-c2cc(C(F)(F)C(F)F)[nH]n2)c1 [IPK 000 164 52],,,80,64.7
Cc1c(Cl)cccc1/N=C/c1ccc([N+](=O)[O-])o1 [IPK 000 167 54],,,16.5,19.5
ON=C(/C=C/c1ccccc1)/C=C/c1ccccc1 [IPK 000 168 10],,,65.6,38
CC1=NN(C(N)=S)C(=O)/C1=N/Nc1ccc(C)cc1 [IPK 000 168 31],,,78.1,83.9
CC1=NN(C(N)=S)C(=O)/C1=N/Nc1ccccc1C [IPK 000 168 32],,,81.9,75.7
Cc1ccccc1C(=O)NNC(=O)c1cc([N+](=O)[O-])cc([N+](=O)[O-])c1 [IPK 000 169 30],56.2,73.7,,
O=C(Nc1ccc(Br)c(Cl)c1)c1cccs1 [IPK 000 169 42],,,76.9,-64
O=[N+]([O-])c1ccc(Cl)c(/C=N/c2ccccc2O)c1 [IPK 000 169 68],,,-5.3,-5
O=[N+]([O-])c1ccc(/C=N/c2ccccc2O)s1 [IPK 000 169 76],,,16.7,-71.9
Oc1ccccc1/N=C/c1ccc(OCc2ccccc2)cc1 [IPK 000 169 86],,,13,0.5
CSc1ccc(/C=N/c2ccccc2O)cc1 [IPK 000 169 96],,,14.7,-50.2
O=C(N/N=C/c1c(Cl)cccc1Cl)c1ccncc1 [IPK 000 170 33],,,96.3,49.5

Compound,inhibition at 20 µM [1] [%],inhibition at 20 µM [2] [%],inhibition at 20 µM [3] [%],inhibition at 20 µM [4] [%]
CCOc1ccc(NN=C(C#N)C#N)cc1 [IPK 000 170 72],-29.5,-21.3,,
COc1cccc(C(O)c2cccs2)c1 (stereo not shown) [IPK 000 171 27],,,95.2,95.2
O=[N+]([O-])c1ccc(NNc2ccccc2)c([N+](=O)[O-])c1 [IPK 000 171 46],24.3,72.1,,
CC1=NN(C(N)=S)C(=O)/C1=N/Nc1ccc(O)cc1 [IPK 000 171 84],,,13.3,-79.6
CCOc1ccc(C(=O)/C=C/c2ccccc2F)cc1 [IPK 000 172 34],,,12.5,-82.4
O=C(/C=C/c1ccccc1F)c1ccc(Cl)cc1 [IPK 000 172 35],,,59.9,0.9
CCOc1ccc(NCCCCO)cc1 [IPK 000 172 54],,,40.4,4.1
C/C(=N\NC(=S)Nc1cccc(C)c1)c1ccccc1O [IPK 000 173 06],,,15.8,44
C/C(=N\NC(=S)Nc1cccc(C)c1)c1ccco1 [IPK 000 173 45],,,19.2,14.9
NC(=O)c1ccccc1/N=C/c1ccc([N+](=O)[O-])o1 [IPK 000 175 27],,,25.8,-69.7
O=[N+]([O-])c1ccc(/C=N/c2ccc(Cl)c([N+](=O)[O-])c2)o1 [IPK 000 178 24],-26.4,-4.1,,
Cc1ccsc1/C=C/c1ccccc1O [IPK 000 179 05],,,16.6,-31.7
CC1=NN(c2ccc([N+](=O)[O-])cc2)C(=O)/C1=N/Nc1c(Cl)cc([N+](=O)[O-])cc1Cl [IPK 000 179 49],65.7,78.5,,
C/C(=N/NC(=O)c1cc2ccccc2cc1O)c1ccc(O)cc1 [IPK 000 180 11],,,69.7,68.2
O=C(Nc1ccc(Cl)c(Cl)c1)c1ccc(Cn2cc(Cl)cn2)cc1 [IPK 000 180 16],,,69.8,46.1
O=C(Nc1ccc(Cl)c(Cl)c1)c1ccc(Cn2cc(Br)cn2)cc1 [IPK 000 180 17],,,34.5,63.2
OC1CCCc2c1[nH]c1ccc(Br)cc21 (stereo not shown) [IPK 000 180 76],,,92.1,70.6
O=C(NCCC1=CCCCC1)c1ccc(Br)o1 [IPK 000 184 56],,,72.7,85.1
Cc1cc(OCC(=O)NN)ccc1Br [IPK 000 192 59],,,81.1,65.3
Cc1ccoc1/C=N/NC(=O)c1ccncc1 [IPK 000 193 76],,,97.4,81.4
CCN(CC)c1ccc(/C=N/NC(=O)c2ccncc2)cc1 [IPK 000 195 99],,,69.5,79.1
COc1ccc(/C=C2\c3ccccc3-c3ccc(C(=O)CCCCN4CCCCC4)cc32)cc1OC [IPK 000 198 54],,,77.9,38.6
